Results published in article PMC3961306, “Comparison of the Cancer Gene Targeting and Biochemical Selectivities of All Targeted Kinase Inhibitors Approved for Clinical Use” (PLoS ONE, 2014).
pIC50: −log10 of the molar value. Read-outs that look alike come from different tables or passages of the source. One block for each molecule: values may come before it.

Test system: forty-four human cancer cell lines
Experiment: Cell proliferation assay (ATPlite, 72 hours) in the 44 cell line Oncolines panel
Format: cell-based

SMILES: N.N.[Cl][Pt][Cl] [cisplatin]
pIC50 (U-87 MG cell line, ATPlite, 72 hours, read-out: IC50 in cell proliferation assay (table S5 cellpanel data)): < 4.50
pIC50 (cell line 769-P, read-out: cell panel IC50, 769-P): < 4.50
pIC50 (cell line 786-0, read-out: cell panel IC50, 786-0): 4.82
pIC50 (cell line A375, read-out: cell panel IC50, A375): 4.88
pIC50 (cell line A-204, read-out: cell panel IC50, A-204): < 4.50
pIC50 (cell line ACHN, read-out: cell panel IC50, ACHN): 4.87
pIC50 (cell line AN3 CA, read-out: cell panel IC50, AN3 CA): 4.56
pIC50 (cell line BT-20, read-out: cell panel IC50, BT-20): < 4.50
pIC50 (cell line BxPC-3, read-out: cell panel IC50, BxPC-3): 4.70
pIC50 (cell line C-33 A, read-out: cell panel IC50, C-33 A): 4.86
pIC50 (cell line CAL 27, read-out: cell panel IC50, CAL 27): 5.21
pIC50 (cell line CCRF-CEM, read-out: cell panel IC50, CCRF-CEM): 4.98
pIC50 (cell line DLD-1, read-out: cell panel IC50, DLD-1): < 4.50
pIC50 (cell line FaDu, read-out: cell panel IC50, FaDu): 4.56
pIC50 (cell line HCT-15, read-out: cell panel IC50, HCT-15): < 4.50
pIC50 (cell line Hs 578T, read-out: cell panel IC50, Hs 578T): < 4.50
pIC50 (cell line J82, read-out: cell panel IC50, J82): 5.00
pIC50 (cell line Jurkat E6.1, read-out: cell panel IC50, Jurkat E6.1): 5.31
pIC50 (cell line LoVo, read-out: cell panel IC50, LoVo): < 4.50
pIC50 (cell line MG-63, read-out: cell panel IC50, MG-63): 5.07
pIC50 (cell line MOLT-4, read-out: cell panel IC50, MOLT-4): 5.09
pIC50 (cell line MeWo, read-out: cell panel IC50, MeWo): < 4.50
pIC50 (cell line NCI-H82, read-out: cell panel IC50, NCI-H82): 4.70
pIC50 (cell line NCI-H460, read-out: cell panel IC50, NCI-H460): 5.00
pIC50 (cell line OVCAR-3, read-out: cell panel IC50, OVCAR-3): < 4.50
pIC50 (cell line PA-1, read-out: cell panel IC50, PA-1): 5.85
pIC50 (cell line RPMI-7951, read-out: cell panel IC50, RPMI-7951): 5.00
pIC50 (cell line SHP-77, read-out: cell panel IC50, SHP-77): < 4.50
pIC50 (cell line SJCRH30, read-out: cell panel IC50, SJCRH30): < 4.50
pIC50 (cell line SK-N-AS, read-out: cell panel IC50, SK-N-AS): < 4.50
pIC50 (cell line SR, read-out: cell panel IC50, SR): 5.35
pIC50 (cell line SW48, read-out: cell panel IC50, SW48): < 4.50
pIC50 (cell line SW480, read-out: cell panel IC50, SW480): < 4.50
pIC50 (cell line SW620, read-out: cell panel IC50, SW620): < 4.50
pIC50 (cell line U-2 OS, read-out: cell panel IC50, U-2 OS): < 4.50
pIC50 (read-out: cell panel IC50, A-172, cell line A-172): < 4.50
pIC50 (read-out: cell panel IC50, A-427, cell line A-427): < 4.50
pIC50 (read-out: cell panel IC50, A-498, cell line A-498): 4.63
pIC50 (read-out: cell panel IC50, A-549, cell line A-549): 4.81
pIC50 (read-out: cell panel IC50, AU-565, cell line AU-565): 4.82
pIC50 (read-out: cell panel IC50, BT-549, cell line BT-549): 5.02
pIC50 (read-out: cell panel IC50, HCT-116, cell line HCT-116): < 4.50
pIC50 (read-out: cell panel IC50, K-562, cell line K-562): < 4.50
pIC50 (read-out: cell panel IC50, LS 174T, cell line LS 174T): 5.07

pIC50 (Homo sapiens, 769-P, cell line 769-P, read-out: cell panel IC50, 769-P): 7.89
pIC50 (Homo sapiens, 786-0, cell line 786-0, read-out: cell panel IC50, 786-0): 7.38
pIC50 (Homo sapiens, A 172, read-out: cell panel IC50, A-172, cell line A-172): 8.28
pIC50 (Homo sapiens, A204, cell line A-204, read-out: cell panel IC50, A-204): 7.89
pIC50 (Homo sapiens, A498, read-out: cell panel IC50, A-498, cell line A-498): 7.70
pIC50 (Homo sapiens, A549, read-out: cell panel IC50, A-549, cell line A-549): 7.62
pIC50 (Homo sapiens, A-375, cell line A375, read-out: cell panel IC50, A375): 8.26
pIC50 (Homo sapiens, A-427, read-out: cell panel IC50, A-427, cell line A-427): 8.64
pIC50 (Homo sapiens, ACHN, cell line ACHN, read-out: cell panel IC50, ACHN): 7.27
pIC50 (Homo sapiens, AN3-CA, cell line AN3 CA, read-out: cell panel IC50, AN3 CA): 8.89
pIC50 (Homo sapiens, AU565, read-out: cell panel IC50, AU-565, cell line AU-565): 8.49
pIC50 (Homo sapiens, BT-20, cell line BT-20, read-out: cell panel IC50, BT-20): 8.22
pIC50 (Homo sapiens, BT-549, read-out: cell panel IC50, BT-549, cell line BT-549): 8.56
pIC50 (Homo sapiens, BXPC-3, cell line BxPC-3, read-out: cell panel IC50, BxPC-3): 8.05
pIC50 (Homo sapiens, C-33-A, cell line C-33 A, read-out: cell panel IC50, C-33 A): 8.40
pIC50 (Homo sapiens, CAL-27, cell line CAL 27, read-out: cell panel IC50, CAL 27): 8.56
pIC50 (Homo sapiens, CCRF-CEM, cell line CCRF-CEM, read-out: cell panel IC50, CCRF-CEM): 8.49
pIC50 (Homo sapiens, DLD-1, cell line DLD-1, read-out: cell panel IC50, DLD-1): 7.21
pIC50 (Homo sapiens, FaDu, cell line FaDu, read-out: cell panel IC50, FaDu): 8.10
pIC50 (Homo sapiens, HCT-15, cell line HCT-15, read-out: cell panel IC50, HCT-15): 7.18
pIC50 (Homo sapiens, HCT-116, read-out: cell panel IC50, HCT-116, cell line HCT-116): 8.30
pIC50 (Homo sapiens, Hs-578T, cell line Hs 578T, read-out: cell panel IC50, Hs 578T): 8.61
pIC50 (Homo sapiens, Jurkat E6.1, cell line Jurkat E6.1, read-out: cell panel IC50, Jurkat E6.1): 8.55
pIC50 (Homo sapiens, K562, read-out: cell panel IC50, K-562, cell line K-562): 8.50
pIC50 (Homo sapiens, LS174T, read-out: cell panel IC50, LS 174T, cell line LS 174T): 8.30
pIC50 (Homo sapiens, LoVo, cell line LoVo, read-out: cell panel IC50, LoVo): 8.00
pIC50 (Homo sapiens, MG-63, cell line MG-63, read-out: cell panel IC50, MG-63): 8.45
pIC50 (Homo sapiens, MOLT-4, cell line MOLT-4, read-out: cell panel IC50, MOLT-4): 8.81
pIC50 (Homo sapiens, MeWo, cell line MeWo, read-out: cell panel IC50, MeWo): 8.07
pIC50 (Homo sapiens, NCI-H82, cell line NCI-H82, read-out: cell panel IC50, NCI-H82): 8.37
pIC50 (Homo sapiens, NCI-H460, cell line NCI-H460, read-out: cell panel IC50, NCI-H460): 7.46
pIC50 (Homo sapiens, OVCAR-3, cell line OVCAR-3, read-out: cell panel IC50, OVCAR-3): 8.45
pIC50 (Homo sapiens, RPMI-7951, cell line RPMI-7951, read-out: cell panel IC50, RPMI-7951): 8.65
pIC50 (Homo sapiens, SHP77, cell line SHP-77, read-out: cell panel IC50, SHP-77): 6.74
pIC50 (Homo sapiens, SK-N-AS, cell line SK-N-AS, read-out: cell panel IC50, SK-N-AS): 8.64
pIC50 (Homo sapiens, SW48, cell line SW48, read-out: cell panel IC50, SW48): 8.37
pIC50 (Homo sapiens, SW480, cell line SW480, read-out: cell panel IC50, SW480): 8.15
pIC50 (Homo sapiens, SW-620, cell line SW620, read-out: cell panel IC50, SW620): 8.33
pIC50 (Homo sapiens, U2OS, cell line U-2 OS, read-out: cell panel IC50, U-2 OS): 7.66
pIC50 (Homo sapiens, U-87 MG, 72 h, U-87 MG cell line, ATPlite, 72 hours, read-out: IC50 in cell proliferation assay (table S5 cellpanel data)): 8.36
pIC50 (Homo sapiens, cell line J82, read-out: cell panel IC50, J82): 7.55
pIC50 (Homo sapiens, cell line PA-1, read-out: cell panel IC50, PA-1): 8.78
pIC50 (Homo sapiens, cell line SJCRH30, read-out: cell panel IC50, SJCRH30): > 9.00
pIC50 (Homo sapiens, cell line SR, read-out: cell panel IC50, SR): > 9.00
SMILES: CC[C@]1(O)C[C@H]2CN(CCc3c([nH]c4ccccc34)[C@@](C(=O)OC)(c3cc4c(cc3OC)N(C=O)[C@H]3[C@@](O)(C(=O)OC)[C@H](OC(C)=O)[C@]5(CC)C=CCN6CC[C@]43[C@@H]65)C2)C1 [vincristine]
